Measurements: patent US10670605B2, “Cysteine reactive probes and uses thereof” (The Scripps Research Institute, priority 2015, dated 2020)

Experiments:
Test in all cases: Competitive isoTOP-ABPP, cell lysates
Format in all cases: binding
[1] = target: T1, PDIA6 C190 (Q15084) (Homo sapiens, UniProt Q15084); details: for isoTOP-ABPP ratio, Q15084_C190: 500 μM, invitro
T1 sequence (Q15084 20-440): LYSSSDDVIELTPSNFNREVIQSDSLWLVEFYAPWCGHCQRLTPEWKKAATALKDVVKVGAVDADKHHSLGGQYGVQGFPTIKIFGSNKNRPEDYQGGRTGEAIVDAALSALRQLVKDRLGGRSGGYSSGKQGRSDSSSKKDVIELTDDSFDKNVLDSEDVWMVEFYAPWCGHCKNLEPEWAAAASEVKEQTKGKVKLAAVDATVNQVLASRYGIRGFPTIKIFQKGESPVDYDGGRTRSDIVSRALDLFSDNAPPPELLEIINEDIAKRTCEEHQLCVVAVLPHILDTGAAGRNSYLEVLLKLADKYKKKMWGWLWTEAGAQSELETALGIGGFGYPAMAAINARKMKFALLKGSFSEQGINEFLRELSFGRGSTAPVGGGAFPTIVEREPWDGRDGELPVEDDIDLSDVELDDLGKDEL

[2] = target: PRMT1 C109 (Q99873) (Homo sapiens, UniProt Q99873); details: for isoTOP-ABPP ratio, Q99873_C109: 500 μM, invitro
PRMT1 C109 (Q99873), sequence (Q99873 whole entry): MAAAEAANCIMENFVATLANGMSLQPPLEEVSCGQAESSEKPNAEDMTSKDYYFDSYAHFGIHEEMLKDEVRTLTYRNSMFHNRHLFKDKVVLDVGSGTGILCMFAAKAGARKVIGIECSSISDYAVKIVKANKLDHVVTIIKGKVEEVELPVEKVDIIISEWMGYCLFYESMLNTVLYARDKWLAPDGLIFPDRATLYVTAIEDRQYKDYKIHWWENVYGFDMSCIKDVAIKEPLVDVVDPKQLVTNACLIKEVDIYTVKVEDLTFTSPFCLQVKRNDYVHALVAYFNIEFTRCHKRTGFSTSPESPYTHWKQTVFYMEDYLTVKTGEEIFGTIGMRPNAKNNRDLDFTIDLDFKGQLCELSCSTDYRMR

[3] = target: SMARCC2 C145 (Q8TAQ2) (Homo sapiens, UniProt Q8TAQ2); details: for isoTOP-ABPP ratio Q8TAQ2_C145: 500 μM, invitro
SMARCC2 C145 (Q8TAQ2), sequence (Q8TAQ2 whole entry): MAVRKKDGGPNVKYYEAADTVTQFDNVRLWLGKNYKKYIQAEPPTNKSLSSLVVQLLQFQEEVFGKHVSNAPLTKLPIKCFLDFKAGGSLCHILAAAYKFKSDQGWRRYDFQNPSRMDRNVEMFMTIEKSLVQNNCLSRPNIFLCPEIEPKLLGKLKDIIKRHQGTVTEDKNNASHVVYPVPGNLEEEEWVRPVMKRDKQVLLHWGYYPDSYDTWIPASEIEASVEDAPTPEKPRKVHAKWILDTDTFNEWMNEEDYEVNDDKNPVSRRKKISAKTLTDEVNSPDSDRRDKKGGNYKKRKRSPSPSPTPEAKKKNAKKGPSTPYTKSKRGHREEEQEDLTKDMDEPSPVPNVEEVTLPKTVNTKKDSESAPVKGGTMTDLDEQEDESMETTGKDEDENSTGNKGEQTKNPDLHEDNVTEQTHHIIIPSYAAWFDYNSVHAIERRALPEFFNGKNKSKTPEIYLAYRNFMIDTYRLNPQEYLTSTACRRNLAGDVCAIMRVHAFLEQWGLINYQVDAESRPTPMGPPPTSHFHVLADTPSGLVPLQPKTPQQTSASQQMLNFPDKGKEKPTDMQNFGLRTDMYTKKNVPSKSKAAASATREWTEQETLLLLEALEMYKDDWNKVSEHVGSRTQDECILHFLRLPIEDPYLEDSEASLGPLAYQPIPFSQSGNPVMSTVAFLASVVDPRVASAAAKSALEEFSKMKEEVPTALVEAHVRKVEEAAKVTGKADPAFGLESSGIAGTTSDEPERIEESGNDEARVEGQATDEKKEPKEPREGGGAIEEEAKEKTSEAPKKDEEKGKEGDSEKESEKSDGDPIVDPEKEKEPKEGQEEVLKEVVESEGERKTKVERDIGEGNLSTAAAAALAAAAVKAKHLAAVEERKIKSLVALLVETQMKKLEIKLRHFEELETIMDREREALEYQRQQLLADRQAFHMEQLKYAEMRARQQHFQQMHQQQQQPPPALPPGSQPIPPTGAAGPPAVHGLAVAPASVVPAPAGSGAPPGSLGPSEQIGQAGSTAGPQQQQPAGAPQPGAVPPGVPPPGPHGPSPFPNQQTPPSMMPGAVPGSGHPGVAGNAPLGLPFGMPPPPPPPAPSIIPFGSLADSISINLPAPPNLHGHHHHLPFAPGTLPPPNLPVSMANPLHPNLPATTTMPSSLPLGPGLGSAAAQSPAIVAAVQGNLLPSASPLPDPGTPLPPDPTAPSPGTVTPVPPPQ

[4] = target: STAT3 C259 (P40763) (Homo sapiens, UniProt P40763); details: for isoTOP-ABPP ratio, P40763_C259: 500 μM, invitro
STAT3 C259 (P40763), sequence (P40763 whole entry): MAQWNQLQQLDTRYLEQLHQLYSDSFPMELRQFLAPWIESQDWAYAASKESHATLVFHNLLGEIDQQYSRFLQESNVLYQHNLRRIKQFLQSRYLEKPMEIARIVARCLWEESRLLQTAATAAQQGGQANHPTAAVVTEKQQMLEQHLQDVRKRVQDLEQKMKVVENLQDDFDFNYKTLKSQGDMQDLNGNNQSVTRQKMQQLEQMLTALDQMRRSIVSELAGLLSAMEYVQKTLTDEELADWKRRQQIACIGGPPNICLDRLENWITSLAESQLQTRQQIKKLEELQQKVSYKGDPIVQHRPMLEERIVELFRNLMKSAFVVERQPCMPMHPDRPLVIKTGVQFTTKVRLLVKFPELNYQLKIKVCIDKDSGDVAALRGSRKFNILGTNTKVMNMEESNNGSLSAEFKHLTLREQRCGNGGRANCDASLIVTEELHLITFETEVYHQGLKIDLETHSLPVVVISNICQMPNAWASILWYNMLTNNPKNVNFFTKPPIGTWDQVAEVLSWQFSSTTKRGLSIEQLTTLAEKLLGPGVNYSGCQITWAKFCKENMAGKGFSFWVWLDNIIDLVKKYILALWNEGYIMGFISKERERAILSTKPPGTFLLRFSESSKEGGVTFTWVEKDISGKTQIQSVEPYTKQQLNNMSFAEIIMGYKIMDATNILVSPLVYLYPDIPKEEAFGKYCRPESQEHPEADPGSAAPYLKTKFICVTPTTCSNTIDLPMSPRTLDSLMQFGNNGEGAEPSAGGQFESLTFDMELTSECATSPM

[5] = target: T2, UBE2S C118 (Q16763) (Homo sapiens, UniProt Q16763); details: for isoTOP-ABPP ratio, Q16763_C118: 500 μM, invitro
T2 sequence (Q16763 1-222): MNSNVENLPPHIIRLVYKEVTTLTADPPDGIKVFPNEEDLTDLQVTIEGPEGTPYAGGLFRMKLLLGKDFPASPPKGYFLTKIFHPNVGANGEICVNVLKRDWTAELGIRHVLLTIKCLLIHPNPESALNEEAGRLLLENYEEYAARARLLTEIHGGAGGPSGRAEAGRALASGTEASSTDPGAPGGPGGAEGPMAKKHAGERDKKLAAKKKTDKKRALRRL

[6] = target: T3, ACAT1 C119 (P24752) (Homo sapiens, UniProt P24752); details: for isoTOP-ABPP ratio P24752_C119: 500 μM, invitro
T3 sequence (P24752 34-427): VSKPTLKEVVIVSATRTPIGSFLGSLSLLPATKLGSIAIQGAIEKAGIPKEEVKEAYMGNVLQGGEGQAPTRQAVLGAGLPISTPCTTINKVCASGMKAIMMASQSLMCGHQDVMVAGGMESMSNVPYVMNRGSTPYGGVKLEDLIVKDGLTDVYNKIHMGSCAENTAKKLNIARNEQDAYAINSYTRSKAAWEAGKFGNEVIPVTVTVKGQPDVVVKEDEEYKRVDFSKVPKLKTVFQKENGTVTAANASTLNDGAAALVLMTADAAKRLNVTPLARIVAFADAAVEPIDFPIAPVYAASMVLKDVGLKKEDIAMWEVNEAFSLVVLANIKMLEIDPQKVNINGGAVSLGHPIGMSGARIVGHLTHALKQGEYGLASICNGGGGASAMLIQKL

[7] = target: T4, ACAT1 C413 (P24752) (Homo sapiens, UniProt P24752); details: for isoTOP-ABPP ratio P24752_C413: 500 μM, invitro
T4 sequence (P24752 34-427): T3 sequence (P24752 34-427)

Row | SMILES | isoTOP-ABPP ratio, Q99873_C109 [2]; 231 | isoTOP-ABPP ratio P24752_C119 [6]; 231 | isoTOP-ABPP ratio P24752_C413 [7]; 231 | isoTOP-ABPP ratio (reactivity profile), Q15084_C190 ([1]; 500 μm in-vitro ramos) | isoTOP-ABPP ratio (reactivity profile), Q99873_C109 ([2]; 500 μm in-vitro ramos) | isoTOP-ABPP ratio (reactivity profile), Q8TAQ2_C145 ([3]; 500 μm in-vitro ramos) | isoTOP-ABPP ratio (reactivity profile), P40763_C259 ([4]; 500 μm in-vitro ramos) | isoTOP-ABPP ratio (reactivity profile), Q16763_C118 ([5]; 500 μm in-vitro ramos) | isoTOP-ABPP ratio (reactivity profile), P24752_C119 ([6]; 500 μm in-vitro ramos) | isoTOP-ABPP ratio (reactivity profile), P24752_C413 ([7]; 500 μm in-vitro ramos) | isoTOP-ABPP ratio (reactivity profile), Q15084_C190 ([1]; 500 μm in-vitro ramos_231) | isoTOP-ABPP ratio (reactivity profile), Q99873_C109 ([2]; 500 μm in-vitro ramos_231) | isoTOP-ABPP ratio (reactivity profile), Q8TAQ2_C145 ([3]; 500 μm in-vitro ramos_231) | isoTOP-ABPP ratio (reactivity profile), P24752_C119 ([6]; 500 μm in-vitro ramos_231) | isoTOP-ABPP ratio (reactivity profile), P24752_C413 ([7]; 500 μm in-vitro ramos_231) | also measured
1 | O=C(CCl)N1CCN(S(=O)(=O)c2ccccc2F)CC1 [compound 10] | 2.3 | 1.5 | 13.0 | – | – | – | – | – | – | – | – | – | – | – | – | isoTOP-ABPP ratio, Q15084_C190 ([1]; ramos): 3.3; isoTOP-ABPP ratio, Q99873_C109 ([2]; ramos): 1.3; isoTOP-ABPP ratio Q8TAQ2_C145 [3]; 231: 4.2; isoTOP-ABPP ratio, P40763_C259 [4]; 231: 3.4; isoTOP-ABPP ratio, Q16763_C118 [5]; 231: 1.7; isoTOP-ABPP ratio P24752_C119 ([6]; ramos): 1.4; isoTOP-ABPP ratio P24752_C413 ([7]; ramos): 1.6
2 | O=C(CCl)NCCc1c[nH]c2ccccc12 [compound 13] | 1.0 | 1.2 | 5.5 | – | – | – | – | – | – | – | – | – | – | – | – | isoTOP-ABPP ratio, Q15084_C190 [1]; 231: 1.5; isoTOP-ABPP ratio, Q15084_C190 ([1]; ramos): 1.3; isoTOP-ABPP ratio, Q99873_C109 ([2]; ramos): 0.9; isoTOP-ABPP ratio Q8TAQ2_C145 ([3]; ramos): 0.8; isoTOP-ABPP ratio, P40763_C259 ([4]; ramos): 1.2; isoTOP-ABPP ratio, Q16763_C118 ([5]; ramos): 0.7; isoTOP-ABPP ratio P24752_C119 ([6]; ramos): 0.6; isoTOP-ABPP ratio P24752_C413 ([7]; ramos): 7.3
3 | C=CC(=O)N(Cc1cccnc1)c1ccc(Oc2ccccc2)c(C(F)(F)F)c1 [compound 15] | 0.9 | 1.0 | 1.2 | 1.2 | 1.2 | 1.2 | 1.9 | 1.2 | 1.2 | 0.9 | – | – | – | – | – | isoTOP-ABPP ratio, Q15084_C190 [1]; 231: 0.9
4 | O=C(CCl)N1CCC(C(O)(c2ccccc2)c2ccccc2)CC1 [compound 20] | – | – | – | 2.1 | 2.2 | 3.9 | 3.0 | 2.9 | 2.6 | 14.0 | 2.1 | 1.9 | 2.9 | 3.6 | 20.0 | –
5 | O=C(CCl)NC12CC3CC(CC(C3)C1)C2 [compound 21] | – | – | – | 2.3 | 1.5 | – | 2.9 | – | 1.1 | 1.4 | 1.1 | 1.1 | 1.2 | 0.9 | 1.4 | isoTOP-ABPP ratio (reactivity profile), Q16763_C118 ([5]; 500 μm in-vitro ramos_231): 0.9
6 | O=C(CCl)N1CCOCC1 [compound 22] | – | – | – | 4.2 | 1.0 | 1.2 | – | 0.9 | 0.8 | 1.1 | 2.2 | 1.0 | – | 1.0 | 1.1 | isoTOP-ABPP ratio (reactivity profile), P40763_C259 ([4]; 500 μm in-vitro ramos_231): 2.0
7 | N#C/C(=C\c1cc(C(F)(F)F)cc(C(F)(F)F)c1)C(N)=O [compound 23] | – | – | – | 1.1 | 1.0 | – | 0.8 | 2.4 | 2.0 | 1.2 | 0.8 | 0.8 | 1.3 | 1.7 | 1.1 | isoTOP-ABPP ratio (reactivity profile), P40763_C259 ([4]; 500 μm in-vitro ramos_231): 1.1; isoTOP-ABPP ratio (reactivity profile), Q16763_C118 ([5]; 500 μm in-vitro ramos_231): 1.6
